The results in this text go back to patent US20170291905A1, “ARGININE […] INHIBITORS AND USES THEREOF” (Epizyme, Inc., priority 2014, published 2017).

Molecules are shown by their SMILES. Structures can show the parent of a compound that is named as a salt.

Sequence of full-length human PRMT6 (Flag- and His-tagged) (Q96LA8 with tags, fused parts or gaps): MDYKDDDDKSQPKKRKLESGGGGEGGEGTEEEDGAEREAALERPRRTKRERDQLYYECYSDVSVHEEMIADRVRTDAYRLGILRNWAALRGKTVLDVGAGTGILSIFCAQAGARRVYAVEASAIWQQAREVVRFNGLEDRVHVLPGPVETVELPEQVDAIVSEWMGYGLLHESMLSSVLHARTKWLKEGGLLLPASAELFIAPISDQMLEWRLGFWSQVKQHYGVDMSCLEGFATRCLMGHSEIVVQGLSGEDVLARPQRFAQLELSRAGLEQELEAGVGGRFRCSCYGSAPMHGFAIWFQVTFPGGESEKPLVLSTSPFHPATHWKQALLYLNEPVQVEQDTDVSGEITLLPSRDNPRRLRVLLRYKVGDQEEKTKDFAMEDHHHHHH

The experiment has as its target full-length human PRMT6 (Flag- and His-tagged) (Homo sapiens, UniProt Q96LA8). Nature of the experiment: PRMT6 biochemical assay (3H-SAM Flashplate, histone H4 36-50 K44me1 peptide). As to conditions: 1 nM PRMT6, 30 min preincubation, 75 nM peptide. The method in brief:
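Flag/His-tagged full-length PRMT6 (1 nM) pre-incubated 30 min RT with compound in 20 mM Bicine pH 7.6, then given 200 nM 3H-SAM, 250 nM cold SAM and 75 nM biotinylated H4 36-50 K44me1 peptide. Methylated peptide captured on streptavidin Flashplates and counted; % inhibition versus DMSO and 1 mM SAH controls, fitted to 3- or 4-parameter curves.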
On to `CCOCC1(COCC)CCC(c2n[nH]cc2CN(C)CCN)CC1` [compound 123], for which the IC50 amounted to 16.7 nM.

For the compound `CCOCC1(COCC)CCC(c2nn(C)cc2CN(C)CCN)CC1` [compound 124], the IC50 amounted to 58.1 nM.

`CNCCN(C)Cc1c[nH]nc1C1CCC2(CC1)CC(C)(C)OC2=O` (centres unmarked) [compound 125]: the IC50 was determined as 17.4 nM.

The compound `CNCCN(C)Cc1c[nH]nc1[C@H]1CC[C@@]2(CC1)COC(C)(C)C2` [compound 126, N1-((3-((5r,8r)-3,3-dimethyl-2-oxaspiro[4.5]decan-8-yl)-1H-pyrazol-4-yl)methyl)-N1,N2-dimethylethane-1,2-diamine] gave an IC50 of 39.9 nM. Against the preceding compound, the IC50 is about 2.3-fold higher.

The compound `CNCCN(C)Cc1c[nH]nc1[C@H]1CC[C@]2(CCCCO2)CC1` [compound 127, methyl([2-[methyl([3-[(6s,9r)-1-oxaspiro[5.5]undecan-9-yl]-1H-pyrazol-4-yl]methyl)amino]ethyl])amine bistrifluoroacetic acid salt] gave an IC50 of 23.2 nM.

One may read the IC50 as the concentration that inhibits the measured activity by half. A low value points to greater potency in that assay.
